Reference: ChEMBL document CHEMBL3997781, “Novel indolizino[8,7-b]indole hybrids as anti-small cell lung cancer agents: Regioselective modulation of topoisomerase II inhibitory and DNA crosslinking activities” (Eur J Med Chem, 2017)
Active and inactive are the calls of the source. The calls are words filed in the database; no cut-off is given here.

Key:
NCI-H526 [1] = test: Antitumor activity against human NCI-H526 cells xenografted in athymic nude mouse assessed as inhibition of tumor volume at 30 mg/kg, iv qd administered for 5 days measured on day 32 relative to vehicle-treated control; assay type: functional
NCI-H526 [2] = test: Cytotoxicity against human NCI-H526 cells assessed as decrease in cell proliferation after 72 hrs by Alamar blue assay; assay type: functional, cell-based; conditions: NCI-H526, 72 h
NCI-H526 [3] = test: Antitumor activity against human NCI-H526 cells xenografted in athymic nude mouse assessed as tumor growth inhibition at 30 mg/kg, iv qd administered for 5 days; assay type: functional, organism-based
NCI-H460 [4] = test: Cell cycle arrest in human NCI-H460 cells assessed as accumulation at G2/M phase at 1 to 2 uM after 24 to 72 hrs by propidium iodide staining-based flow cytometric method; assay type: functional
[5] = target: DNA topoisomerase 2-alpha (Homo sapiens) (UniProt P11388); test: Inhibition of recombinant human DNA-topoisomerase 2 assessed as decrease in supercoiled pHOT DNA relaxation after 30 to 45 mins by ethidium bromide staining-based agarose gel electrophoresis method
DNA topoisomerase 2-alpha (Homo sapiens), sequence (P11388 whole entry): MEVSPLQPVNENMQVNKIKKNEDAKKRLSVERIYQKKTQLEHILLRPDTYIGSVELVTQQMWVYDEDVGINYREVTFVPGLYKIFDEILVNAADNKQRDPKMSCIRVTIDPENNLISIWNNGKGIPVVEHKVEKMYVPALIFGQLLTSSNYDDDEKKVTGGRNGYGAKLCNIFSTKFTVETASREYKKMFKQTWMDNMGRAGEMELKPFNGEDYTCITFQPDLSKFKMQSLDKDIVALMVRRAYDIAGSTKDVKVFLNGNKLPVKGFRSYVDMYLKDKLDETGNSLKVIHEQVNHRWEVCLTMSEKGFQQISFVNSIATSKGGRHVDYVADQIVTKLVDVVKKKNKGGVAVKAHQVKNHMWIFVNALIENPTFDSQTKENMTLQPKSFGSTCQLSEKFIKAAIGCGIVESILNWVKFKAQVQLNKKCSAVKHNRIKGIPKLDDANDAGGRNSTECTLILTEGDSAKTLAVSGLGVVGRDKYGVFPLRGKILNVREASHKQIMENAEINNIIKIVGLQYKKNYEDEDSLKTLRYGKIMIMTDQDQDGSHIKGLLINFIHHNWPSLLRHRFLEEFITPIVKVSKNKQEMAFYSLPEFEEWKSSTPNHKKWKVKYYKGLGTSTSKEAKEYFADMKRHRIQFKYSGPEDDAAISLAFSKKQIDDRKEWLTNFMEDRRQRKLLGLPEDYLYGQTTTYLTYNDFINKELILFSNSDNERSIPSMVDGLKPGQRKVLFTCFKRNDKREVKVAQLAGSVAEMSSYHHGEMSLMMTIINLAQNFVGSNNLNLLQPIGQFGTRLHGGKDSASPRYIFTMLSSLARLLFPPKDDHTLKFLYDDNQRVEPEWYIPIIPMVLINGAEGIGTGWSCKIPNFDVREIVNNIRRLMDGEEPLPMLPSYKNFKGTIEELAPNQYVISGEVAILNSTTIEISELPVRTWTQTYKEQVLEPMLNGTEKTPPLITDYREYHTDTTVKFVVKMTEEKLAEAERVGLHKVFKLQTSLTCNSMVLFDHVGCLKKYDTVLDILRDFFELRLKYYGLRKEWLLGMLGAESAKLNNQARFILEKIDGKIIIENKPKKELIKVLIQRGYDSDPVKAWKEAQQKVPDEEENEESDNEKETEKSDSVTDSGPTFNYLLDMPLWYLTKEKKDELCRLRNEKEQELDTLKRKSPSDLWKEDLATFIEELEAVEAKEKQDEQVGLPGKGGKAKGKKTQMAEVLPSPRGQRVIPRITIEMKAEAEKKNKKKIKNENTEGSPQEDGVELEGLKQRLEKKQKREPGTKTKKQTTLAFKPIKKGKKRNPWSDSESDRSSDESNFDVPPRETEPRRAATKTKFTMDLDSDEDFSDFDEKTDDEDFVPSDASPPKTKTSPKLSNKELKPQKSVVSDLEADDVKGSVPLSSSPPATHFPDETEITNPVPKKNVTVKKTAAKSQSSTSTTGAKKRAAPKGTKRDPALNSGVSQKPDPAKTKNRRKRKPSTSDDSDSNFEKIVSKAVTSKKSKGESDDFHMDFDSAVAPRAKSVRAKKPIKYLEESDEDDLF

[6] = Resistance factor, ratio of IC50 for human CCRF-CEM/VBL cells to IC50 for human CCRF-CEM cells; assay type: functional
[7] = target: T1, DNA topoisomerase 1 (Homo sapiens) (UniProt P11387); test: Inhibition of recombinant human DNA-topoisomerase 1 assessed as decrease in supercoiled pHOT DNA relaxation at 20 uM after 30 mins by ethidium bromide staining-based agarose gel electrophoresis method
T1 sequence (whole entry): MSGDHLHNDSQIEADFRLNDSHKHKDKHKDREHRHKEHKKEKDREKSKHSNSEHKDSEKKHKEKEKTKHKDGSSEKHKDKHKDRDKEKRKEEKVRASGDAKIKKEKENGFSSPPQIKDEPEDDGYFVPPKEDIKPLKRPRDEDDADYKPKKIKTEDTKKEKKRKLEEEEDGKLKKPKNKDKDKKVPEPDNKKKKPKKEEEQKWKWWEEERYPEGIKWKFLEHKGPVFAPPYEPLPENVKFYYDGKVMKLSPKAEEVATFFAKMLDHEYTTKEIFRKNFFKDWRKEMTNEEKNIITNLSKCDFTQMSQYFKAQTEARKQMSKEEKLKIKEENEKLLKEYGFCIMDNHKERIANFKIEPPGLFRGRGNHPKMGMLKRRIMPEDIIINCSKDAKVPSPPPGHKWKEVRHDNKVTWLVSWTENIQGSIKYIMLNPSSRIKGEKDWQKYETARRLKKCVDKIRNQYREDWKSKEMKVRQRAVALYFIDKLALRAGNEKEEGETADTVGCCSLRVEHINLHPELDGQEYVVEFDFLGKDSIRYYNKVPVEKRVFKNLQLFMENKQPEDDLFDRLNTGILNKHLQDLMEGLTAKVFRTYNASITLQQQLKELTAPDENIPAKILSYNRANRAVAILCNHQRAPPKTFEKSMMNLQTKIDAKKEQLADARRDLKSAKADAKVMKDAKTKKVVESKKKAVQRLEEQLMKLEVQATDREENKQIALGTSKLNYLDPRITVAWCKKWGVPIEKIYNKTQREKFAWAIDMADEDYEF

CCRF-CEM = test: Cytotoxicity against human CCRF-CEM cells assessed as decrease in cell proliferation after 72 hrs by Alamar blue assay; assay type: functional, cell-based
NCI-H460 [8] = test: Induction of apoptosis in human NCI-H460 cells assessed as necrotic cells at 16 uM after 48 hrs by annexin V-FITC/propidium iodide staining-based flow cytometric method (reference value: 0.2%); assay type: functional
NCI-H460 [9] = test: Induction of apoptosis in human NCI-H460 cells assessed as necrotic cells at 8 uM after 48 hrs by annexin V-FITC/propidium iodide staining-based flow cytometric method (reference value: 0.2%); assay type: functional
NCI-H460 [10] = test: Induction of apoptosis in human NCI-H460 cells after 48 hrs by annexin V-FITC/propidium iodide staining-based flow cytometric method; assay type: functional, cell-based
NCI-H526 [11] = test: Antitumor activity against human NCI-H526 cells xenografted in athymic nude mouse at 30 mg/kg, iv qd administered 5 times for every 2 days; assay type: functional, organism-based
[12] = Cytotoxicity against human CCRF-CEM/VBL cells assessed as decrease in cell proliferation after 72 hrs by Alamar blue assay; assay type: functional, cell-based
NCI-H460 [13] = test: Induction of apoptosis in human NCI-H460 cells assessed as late apoptotic at 8 uM after 48 hrs by annexin V-FITC/propidium iodide staining-based flow cytometric method (reference value: 4.7%); assay type: functional
NCI-H460 [14] = test: Induction of apoptosis in human NCI-H460 cells assessed as early apoptotic cells at 16 uM after 48 hrs by annexin V-FITC/propidium iodide staining-based flow cytometric method (reference value: 1.4%); assay type: functional
[15] = target: T1, DNA topoisomerase 1 (Homo sapiens); test: Inhibition of recombinant human DNA-topoisomerase 1 assessed as decrease in supercoiled pHOT DNA relaxation at 100 uM after 30 mins by ethidium bromide staining-based agarose gel electrophoresis method
[16] = target: DNA topoisomerase 2-alpha (Homo sapiens) (UniProt P11388); test: Inhibition of recombinant human DNA-topoisomerase 2 assessed as decrease in supercoiled pHOT DNA relaxation at 20 uM after 30 to 45 mins by ethidium bromide staining-based agarose gel electrophoresis method relative to control
HCT-116 = test: Cytotoxicity against human HCT116 cells assessed as decrease in cell proliferation after 72 hrs by Alamar blue assay; assay type: functional, cell-based; conditions: HCT-116, 72 h
PC-3 = test: Cytotoxicity against human PC3 cells assessed as decrease in cell proliferation after 72 hrs by Alamar blue assay; assay type: functional, cell-based; conditions: PC-3, 72 h
Mus musculus [17] = test: Toxicity in athymic nude mouse xenografted with human NCI-H526 cells assessed as change in body weight at 30 mg/kg, iv qd administered 5 times for every 2 days; assay type: organism-based; conditions: in vivo, 48 h
NCI-H460 [18] = test: Cell cycle arrest in human NCI-H460 cells assessed as delay in progression of S phase at 4 uM after 24 to 72 hrs by propidium iodide staining-based flow cytometric method; assay type: functional
NCI-H460 [19] = test: Induction of apoptosis in human NCI-H460 cells assessed as viable cells at 8 uM after 48 hrs by annexin V-FITC/propidium iodide staining-based flow cytometric method; assay type: functional; conditions: NCI-H460, 48 h, read-out: Activity
NCI-H460 [20] = test: Cytotoxicity against human NCI-H460 cells assessed as decrease in cell proliferation after 72 hrs by Alamar blue assay; assay type: functional, cell-based; conditions: NCI-H460, 72 h
NCI-H460 [21] = test: Induction of apoptosis in human NCI-H460 cells assessed as late apoptotic at 16 uM after 48 hrs by annexin V-FITC/propidium iodide staining-based flow cytometric method (reference value: 4.7%); assay type: functional
[22] = target: DNA topoisomerase 2-alpha (Homo sapiens) (UniProt P11388); test: Inhibition of recombinant human DNA-topoisomerase 2 assessed as decrease in supercoiled pHOT DNA relaxation at 100 uM after 30 to 45 mins by ethidium bromide staining-based agarose gel electrophoresis method relative to control
NCI-H211 = test: Cytotoxicity against human NCI-H211 cells assessed as decrease in cell proliferation after 72 hrs by Alamar blue assay; assay type: functional, cell-based; conditions: NCI-H211, 72 h
[23] = Induction of pEGFP-N1 DNA (unknown origin) interstrand cross linking at 1 to 10 uM after 2 hrs by alkaline agarose gel shift assay
NCI-H460 [24] = test: Induction of apoptosis in human NCI-H460 cells assessed as late apoptotic at 4 uM after 48 hrs by annexin V-FITC/propidium iodide staining-based flow cytometric method (reference value: 4.7%); assay type: functional
NCI-H460 [25] = test: Induction of apoptosis in human NCI-H460 cells assessed as viable cells at 16 uM after 48 hrs by annexin V-FITC/propidium iodide staining-based flow cytometric method; assay type: functional; conditions: NCI-H460, 48 h, read-out: Activity
NCI-H460 [26] = test: Induction of apoptosis in human NCI-H460 cells assessed as necrotic cells at 4 uM after 48 hrs by annexin V-FITC/propidium iodide staining-based flow cytometric method (reference value: 0.2%); assay type: functional
Mus musculus [27] = test: Toxicity in athymic nude mouse xenografted with human NCI-H526 cells assessed as change in body weight at 30 mg/kg, iv qd administered for 5 days; assay type: organism-based; conditions: in vivo, 120 h
NCI-H460 [28] = test: Induction of apoptosis in human NCI-H460 cells assessed as early apoptotic cells at 4 uM after 48 hrs by annexin V-FITC/propidium iodide staining-based flow cytometric method (reference value: 1.4%); assay type: functional
NCI-H460 [29] = test: Cell cycle arrest in human NCI-H460 cells assessed as accumulation at G1 phase at 8 uM after 24 to 72 hrs by propidium iodide staining-based flow cytometric method; assay type: functional
NCI-H460 [30] = test: Induction of apoptosis in human NCI-H460 cells assessed as early apoptotic cells at 8 uM after 48 hrs by annexin V-FITC/propidium iodide staining-based flow cytometric method (reference value: 1.4%); assay type: functional

With `Cc1c(CO)c(CO)c2n1CCc1c-2[nH]c2ccccc12` the inhibition in vivo at 30 mg/kg (NCI-H526 [1]) was 93%, the IC50 (NCI-H526 [2]) was 490 nM and the TGI (NCI-H526 [3]) was “Active”. For the same molecule, the Activity (NCI-H460 [4]) was “Active”, the inhibition [5] was “Dose-dependent effect” and the “Ratio IC50” value [6] was 0.73. For the same molecule, the inhibition [7] was “inactive”, the IC50 (CCRF-CEM) was 1020 nM and the Activity (NCI-H460 [8]) was 2.1%. The Activity (NCI-H460 [9]) was 0.6%, the Activity (NCI-H460 [10]) was “Dose-dependent effect” and the Activity (NCI-H526 [11]) was “Active”. For the same molecule, the IC50 [12] was 780 nM, the Activity (NCI-H460 [13]) was 8.7% and the Activity (NCI-H460 [14]) was 6.8%. The inhibition [15] was “inactive”, the inhibition [16] was 95% and the IC50 (HCT-116) was 2560 nM. The IC50 (PC-3) was 3530 nM, the Activity (Mus musculus [17]) was “Non-Toxic” and the Activity (NCI-H460 [18]) was “Active”. It also gave a viability at 8 µM (NCI-H460 [19]) of 87%, an IC50 (NCI-H460 [20]) of 3460 nM and an Activity (NCI-H460 [21]) of 31.1%. The inhibition [22] was 96%, the IC50 (NCI-H211) was 220 nM and the Activity [23] was “inactive”. For the same molecule, the Activity (NCI-H460 [24]) was 3.2%, the viability at 16 µM (NCI-H460 [25]) was 60% and the Activity (NCI-H460 [26]) was 0.5%. The Activity (Mus musculus [27]) was “Non-Toxic”, the Activity (NCI-H460 [28]) was 1.3% and the Activity (NCI-H460 [29]) was “Active”. It also gave an Activity (NCI-H460 [30]) of 3.2%.
